Values quoted from earlier work, collected in patent US20200386739A1, “TREATMENT OF METAHNOGENIC BACTERIA AS A THERAPY FOR CHRONIC LUNG DISEASE” (priority 2019, published 2020).
Positions of bridges follow the written chain, without caps; N, C: chain ends. Non-standard residues stand in square brackets, D forms with d. Residues, ends and D or L forms follow the SMILES beside them. *: point of attachment. Ileψ(thiazoline)Cys = CC[C@H](C)[C@H](N)C1=N[C@H](C(=O)*)CS1; dOrn = NCCC[C@@H](N)C(=O)O

How the values were obtained:
[1] = test system: guinea pig muscle strips from the ileum
Methanogens = conditions: cell wall lacks peptidoglycan
small intestine of dogs = conditions: in vivo infusion of methane into the small intestine of dogs; scintigraphy
guinea pig ileum = guinea pig ileum exposed to methane
[2] = test system: methane producing patients with IBS-C and chronic constipation

For `CN1[C@@H]2CC[C@H]1C[C@@H](OC(=O)C(CO)c1ccccc1)C2` (some centres unmarked) [atropine], the “effect on the methane-induced increase of contractile amplitude” value [1] is given as “reduced”.
For `CC[C@H](C)[C@H](N)C1=N[C@H](C(=O)N[C@@H](CC(C)C)C(=O)N[C@H](CCC(=O)O)C(=O)N[C@H](C(=O)N[C@H]2CCCCNC(=O)[C@H](CC(N)=O)NC(=O)[C@@H](CC(=O)O)NC(=O)[C@H](Cc3cnc[nH]3)NC(=O)[C@@H](Cc3ccccc3)NC(=O)[C@H]([C@@H](C)CC)NC(=O)[C@@H](CCCN)NC2=O)[C@@H](C)CC)CS1` [bacitracin] ({Ileψ(thiazoline)Cys}-L[dE]IK[dOrn]I[dF]H[dD]N; lactam 4-C), the susceptibility of methanogens (Methanogens) is listed as “susceptible”.
For `O=C(N[C@H](CO)[C@H](O)c1ccc([N+](=O)[O-])cc1)C(Cl)Cl` [chloramphenicol], the susceptibility of methanogens (Methanogens) is listed as “susceptible”.
For `C` [methane], the “slowing of small intestinal transit time” value (small intestine of dogs) is listed as 59%, the amplitude of contractions (guinea pig ileum) is listed as “increased” and the “area under the curve (AUC) of intraluminal pressure” value (guinea pig ileum) is listed as “increased”. The peristaltic velocity (guinea pig ileum) was “significantly decreased” and the contractile amplitude ([1]; methane infusion, ileum muscle strips) was “increased”.
In the case of `CO[C@H]1/C=C/O[C@@]2(C)Oc3c(C)c(O)c4c(O)c(c5c(nc6cc(C)ccn65)c4c3C2=O)NC(=O)/C(C)=C\C=C\[C@H](C)[C@H](O)[C@@H](C)[C@@H](O)[C@@H](C)[C@H](OC(C)=O)[C@@H]1C` [rifaximin], the “colonic transit time and constipation symptoms” value [2] is listed as “improvement” and the methane production [2] is listed as “reduced”.
In the case of `NC1=N[C@H](O)[C@H]2[C@H]3O[C@]4(O)O[C@@H]([C@@H](O)[C@@]2(N1)[C@@H]4O)[C@]3(O)CO` [tetrodotoxin], the “effect on the methane-induced increase of contractile amplitude” value [1] is listed as “blocked”.
